Consider one compound from patent US20250064888A1, “COMPOSITIONS AND METHODS FOR TREATING CYTOKINE STORM” (SHENZHEN HIGHTIDE BIOPHARMACEUTICAL LTD., priority 2022, published 2025).

Each structure is given as a SMILES string. Marks after values point to notes of the source that are not given here.

The test system of the test is LPS-induced mice model. The test is described as follows: Survival rate in LPS-induced mice model. Format: in vivo, C57BL/6J mice. To be noted: G6 positive control, 4 mg/kg/day ig; for survival rate: first dose 1 h before LPS. The method, then:
Male SPF C57BL/6J mice (6-8 weeks old with body weight about 18-20 g) used in the study were purchased from Shanghai SLAC Laboratory Animal Co., Ltd. All the care and use of animals followed 3R principles and relevant regulations.
One hundred (100) male C57BL/6J mice (18-20 g) were used for the study. After acclimated for 7 days, the inflammation mice model, which is characterized by a severe acute systemic inflammation response was established by a single tail vein injection of LPS (30 mg/kg).
The model animals were randomly divided into 7 groups: vehicle control group (G0), test group 1 (G1)˜test group 5 (G5) and positive control group (G6), of which there were 15 mice/group in G0˜G5 and 10 mice/group in G6. Day 1 was defined as the day on which tail vein injection of LPS (30 mg/kg), treatment start from the same day of the model establishment (Day 1) through Day 5 for consecutive 5 days (120 h after LPS induction). Except for the first dose on Day1 which were set at 5 min before LPS injection, 5 min after LPS injection, 1 hour before LPS injection and 1 hour after LPS injection respectively (Detailed information see the administration schedule in table 1), each groups have the same time schedules for administration (8 h after LPS injection for the second dose and bid with once in the morning, once in the evening for the following days). Vehicle and API were administered by back subcutaneous injection, DEX was administered by gavage.
Graphpad 8.0 software was used for data analysis. Log-rank (Mantel-Cox) test was used for statistical analysis of the survival rate between each treatment group and vehicle control group.

On to `C[C@@H]1C[C@H]2[C@@H]3CCC4=CC(=O)C=C[C@]4(C)[C@@]3(F)[C@@H](O)C[C@]2(C)[C@@]1(O)C(=O)CO` [DEX, Dexamethasone], for which the survival rate by setting is: (8 h) 100.0%; (16 h) 100.0%; (24 h) 100.0%; (48 h) 90.0%; (72 h) 90.0%; (120 h) 90.0%**. Besides, the “mice died until 72 h after LPS injection” value (10 mice/group) is 1 mouse.
